We go through one molecule from patent publication US9982011B2, “Legumain activated doxorubicin derivative as well as preparation method and application thereof” (priority 2012, dated 2018).

Entries after “also recorded” stand apart in the source; their conditions may differ.

As usually defined, the MTD is the highest dose tested that stayed within the study's limit of toxicity. Read a high MTD as a wide tolerated range.

Data set [1] deals with Cathepsin B (Homo sapiens, UniProt P07858). As to the kind of experiment: In vitro binding to cathepsin absorbed on a 96-well plate (fluorescence of bound drug). The note with it: cathepsin absorbed on 96-well plate, blocked with BSA, FIG. 1. The source says: The R6 group allows the drug to be able to target cathepsin (Cathepsin B) in the tumor microenvironment and inhibit the activity of cathepsin necessary for tumor growth, development and metastasis. […] The R6 group also allows the drug to have an additional function of targeting tumor, thus the drug has two targeted effects.
The test method was described as follows. Cathepsin was absorbed on a 96-well plate and blocked with BSA. Succinyl-AANL-DOX (SEQ ID NO: 2), S1 and a mixture of S1 and E-64 (an inhibitor for specific binding of cathepsin) were added to allow them to bind to the cathepsin on the 96-well plate. The unbound drugs were removed and the fluorescence of the bound drug was detected.

The subject of data set [2] is BALB/C mice. As to the kind of experiment: Maximum tolerated dose (MTD) / acute toxicity of a single injection in mice. The note with it: single injection; for Mortality rate (%) / Number of dead animal: 6 female BALB/C mice. The text has this:
Test purpose: to investigate the acute toxicity of the subject new drug formulation via MTD assay by intravenous administration to mice.
Test drug: S1 and S2 injections, diluted to the corresponding concentrations with physiological saline when tested.
Animal: the first class BALB/C mice, weighing 19-21 g and all mice being female.
Method and results: 36 female BALB/C mice weighing 19-21 g were randomly divided into 6 groups according to their body weights, with 6 mice in each group. […] Control tests were performed by injecting 0.2 ml physiological saline or doxorubicin hydrochloride. […] Blood samples were taken on the 3, 5 and 14 days for counting the whole blood cells. Animals were anatomized on day 14 to take the heart, liver, kidney, lung, spleen, and pancreas for HE staining.
The MTD for intravenous administration of a test drug is an important reference index for drug toxicity.

As to `COc1cccc2c1C(=O)c1c(O)c3c(c(O)c1C2=O)CC(O)(C(=O)CO)CC3OC1CC(NC(=O)C(CC(C)C)NC(=O)C(CC(N)=O)NC(=O)C(C)NC(=O)C(C)NC(=O)CCCCCN2C(=O)C=CC2=O)C(O)C(C)O1` (centres unmarked) [Example S1, EMC-AANL-Doxorubicin], the Binding to cathepsin entry in data set [1] is given as “bound to the cathepsin; also recorded: can bind cathepsin”; in data set [1] (listed as EMC-AANL-DOX) it was “can efficiently bind to Cathepsin B”. Also, the “Mortality rate (%)” value in data set [2] (50 mg/kg) is reported as 0%; in data set [2] (100 mg/kg), 0%; in data set [2] (150 mg/kg), 0%; in data set [2] (200 mg/kg), 33.3%; in data set [2] (300 mg/kg), 100%. Besides, the “Number of dead animal” value in data set [2] (50 mg/kg, observed 17 days) was found to be 0; in data set [2] (100 mg/kg), 0; in data set [2] (150 mg/kg), 0; in data set [2] (200 mg/kg), 2; in data set [2] (300 mg/kg), 5. For the same molecule, the “Abnormal behaviors and death observed” value in data set [2] (150 mg/kg, mice) was “no pilo-erection, hair tousle and lackluster, lethargy, stoop, irritable reaction and death were observed”. The MTD in data set [2] (mice) is greater than 100 µmol/kg.
